This is an account of results in US11058902B2, “Compositions and methods for treating disease associated with permeability of intestinal epithelium” (9 Meters Biopharma, Inc., priority 2017, dated 2021).

Like-named read-outs stand apart in the source and are kept apart here.

The test system of experiment [1] is ischemic-injured porcine jejunum. The experiment is described as follows: Recovery of barrier function (transepithelial resistance, TER) in ischemic-injured porcine jejunum mucosa ex vivo in Ussing chambers. The experiment is classed as cell-based, Yorkshire-cross pigs. Particulars: fragment added together with larazotide. From the text:
Intestinal epithelial tight junction integrity is crucial to maintain an intact intestinal barrier against noxious luminal contents. […] Porcine mucosa injured by ischemia/reperfusion injury is abnormally permeable until interepithelial tight junctions have re-assembled.
(§1) Yorkshire-cross pigs 6-8-weeks-of-age were anesthetized, followed by midline laparotomy and creation of a series of 10 cm intestinal loops commencing proximal to the ileum by ligating the intestinal lumen. The local mesenteric vasculature was ligated to select treatment loops for 45-min, whereas other loops were left as non-ischemic controls. Loops were subsequently resected, and the mucosal tissues were stripped in oxygenated (95% O2/5% CO2) Ringers from the muscle layers in preparation for ex vivo incubation in Ussing chambers. Tissues were monitored by measuring transepithelial resistance (TER) for 240-min. At the end of a 240-min recovery period, tissues were taken for histology and immunofluorescence evaluation of tight junction proteins.

A further experiment concerns tight junction. The experiment is described as follows: Activity as tight junction regulators (larazotide fragments, alone or mixed with larazotide). Conditions: for activity as tight junction regulators: fragment alone. From the text:
In various embodiments, the methods of the invention comprise treating a subject with larazotide or derivative thereof. Larazotide is a peptide agent that promotes tight junction integrity in the gastrointestinal tract (GI). […] See US 2016/0022760, which is hereby incorporated by reference in its entirety. […] In accordance with this disclosure, it is believed that an aminopeptidase located within the brush borders of the lumen surface may create larazotide-derived fragments, including fragments missing N-terminal glycine residues.

Another experiment concerns occludin. Particulars: tissues treated with larazotide.
Source text: as §1

In a further experiment the test system is claudin 2. Particulars: tissues treated with larazotide.
Source text: as §1

The test system of a further experiment is celiac disease symptoms. Particulars: clinical trials, cited from earlier work.

Turning to “GVLVQPG [larazotide-derived fragment missing an N-terminal glycine residue]”, the “effect of larazotide in the presence of the fragment” value in experiment [1] is listed as “blocked”. Besides, in the experiment with tight junction, the “activity as tight junction regulators” value was “inactive” and the “activity of full length larazotide when mixed with the two fragments” value is reported as “completely abolished”.
Take “Gly Gly Val Leu Val Gin Pro Gly [larazotide]”: the “localization of the tight junction sealing protein occludin” value with occludin was “increased localization”. In addition, the “pore (leak)-forming tight junction protein claudin 2” value in the experiment with claudin 2 was “reductions”. Moreover, the “reducing celiac disease symptoms” value in the experiment with celiac disease symptoms (higher doses (e.g., 1 mg and 2 mg doses)) was “attenuation of activity, or no activity at all”; in the experiment with celiac disease symptoms (lower doses (e.g., 0.5 mg dose)), “benefit at reducing celiac disease symptoms”.
On to “VLVQPG [larazotide-derived fragment missing N-terminal glycine residues]”, for which, in experiment [1], the “effect of larazotide in the presence of the fragment” value was “blocked”. Further, in the experiment with tight junction, the “activity as tight junction regulators” value is “inactive” and the “activity of full length larazotide when mixed with the two fragments” value was “completely abolished”.
